Measurements published in patent US11459329B2, “Imidazopyridazine and imidazopyridine compounds and uses thereof” (Incyte Corporation, priority 2018, dated 2022).

Target: ALK2 (aa 147-end) (Homo sapiens (Human), UniProt Q04771)
Test: ALK2 HTRF Assay
Format: biochemical
Details: not given
Procedure: The enzymatic assays were conducted in white 384-well polystyrene plates in a final volume of 8 μL. The inhibitors were serially diluted in DMSO and added to the plate wells prior to addition of the other reaction components. The assays were carried out at 25° C. in the assay buffer (50 mM HEPES, pH 7.0, 10% Glycerol, 0.01% Brij50, 10 mM MgCl2, 1 mM EGTA, 5 mM DTT, and 0.01% BSA), containing 50 nM LANCE Ultra ULight™-DNA Topoisomerase 2-alpha peptide (Perkin Elmer TRF0130), and 3 μM ATP. The final concentration of DMSO in the assay was 1% and the enzyme concentration was 0.5 nM for ALK2. […] […] IC50 determination was performed by fitting percent control activity versus the log of the inhibitor concentration using the IDBS XLFit and GraphPad Prism 5.0 software.

ALK2 (aa 147-end), sequence (Q04771 147-509): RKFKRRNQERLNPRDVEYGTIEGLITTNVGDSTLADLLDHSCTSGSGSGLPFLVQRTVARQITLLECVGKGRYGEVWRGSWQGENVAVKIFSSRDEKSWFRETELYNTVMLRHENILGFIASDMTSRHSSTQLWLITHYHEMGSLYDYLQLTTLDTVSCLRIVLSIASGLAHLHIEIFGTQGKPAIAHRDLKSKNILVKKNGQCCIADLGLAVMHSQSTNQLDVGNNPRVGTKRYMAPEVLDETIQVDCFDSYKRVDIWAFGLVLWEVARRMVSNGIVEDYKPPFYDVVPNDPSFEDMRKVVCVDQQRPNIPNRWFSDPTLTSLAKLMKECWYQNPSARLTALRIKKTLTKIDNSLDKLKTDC

| SMILES | IC50 |
| --- | --- |
| Cc1nn2c(-c3ccnc4cc(C#N)ccc34)cnc2cc1-c1ccc(N2CCNCC2)cc1 [Example 30, 4-(6-methyl-7-(4-(piperazin-1-yl)phenyl)imidazo[1,2-b]pyridazin-3-yl)quinoline-7-carbonitrile] | 5 to 100 nM |

Same assay, conditions: 3 μM ATP, 0.5 nM ALK2, 2 hr, 25° C.; read-out: ALK2 IC50

| IC50 | SMILES |
| --- | --- |
| 1 to 5 nM | Cc1cnn(-c2ccc3c(-c4cnc5cc(-c6ccc(CN7CCCC7)cc6)c(C)nn45)ccnc3n2)n1 [Example 60, 2-(4-Methyl-2H-1,2,3-triazol-2-yl)-5-(6-methyl-7-(4-(pyrrolidin-1-ylmethyl)phenyl)imidazo[1,2-b]pyridazin-3-yl)-1,8-naphthyridine] |
| < 1 nM | CCn1cnc(-c2ccc3c(-c4cnc5cc(-c6ccc(CN7CCC(C)(O)CC7)cc6)c(C)nn45)ccnc3n2)c1 [Example 72, 1-(4-(3-(7-(1-Ethyl-1H-imidazol-4-yl)-1,8-naphthyridin-4-yl)-6-methylimidazo[1,2-b]pyridazin-7-yl)benzyl)-4-methylpiperidin-4-ol] |
| < 1 nM | Cc1cc(-c2ccc3c(-c4cnc5cc(-c6cnn(C(C)C)c6)c(C)nn45)ccnc3n2)n[nH]1 [Example 50, 5-(7-(1-Isopropyl-1H-pyrazol-4-yl)-6-methylimidazo[1,2-b]pyridazin-3-yl)-2-(5-methyl-1H-pyrazol-3-yl)-1,8-naphthyridine] |
| 1 to 5 nM | Cc1nn2c(-c3ccnc4nc(-c5ccn(C)n5)ccc34)cnc2cc1-c1ccc(C(=O)N(C)C)cc1 [Example 47, N,N-dimethyl-4-(6-methyl-3-(7-(1-methyl-1H-pyrazol-3-yl)-1,8-naphthyridin-4-yl)imidazo[1,2-b]pyridazin-7-yl)benzamide] |
| 1 to 5 nM | Cc1nn2c(-c3ccnc4nc(-c5cnccn5)ccc34)cnc2cc1-c1ccc(CN2CCC2)cc1 [Example 42, 5-(7-(4-(Azetidin-1-ylmethyl)phenyl)-6-methylimidazo[1,2-b]pyridazin-3-yl)-2-(pyrazin-2-yl)-1,8-naphthyridine] |

The remaining lines, values behind:

| SMILES | IC50 |
| --- | --- |
| Cc1nn2c(-c3ccnc4nc(-c5ccccn5)ccc34)cnc2cc1-c1cnn([C@H]2CC[C@H](O)CC2)c1 [Example 37, (1R,4R)-4-(4-(6-Methyl-3-(7-(pyridin-2-yl)-1,8-naphthyridin-4-yl)imidazo[1,2-b]pyridazin-7-yl)-1H-pyrazol-1-yl)cyclohexan-1-ol] | < 1 nM |
| Cc1nn2c(-c3ccnc4nc(-c5ccccn5)ccc34)cnc2cc1-c1ccc(CN2CCC2)cc1 [Example 38, 5-(7-(4-(Azetidin-1-ylmethyl)phenyl)-6-methylimidazo[1,2-b]pyridazin-3-yl)-2-(pyridin-2-yl)-1,8-naphthyridine] | < 1 nM |
| Cc1nn2c(-c3ccnc4cc(-c5ccncc5)ccc34)cnc2cc1-c1ccc(N2CCN(C)CC2=O)cc1 [Example 12, 4-Methyl-1-(4-(6-methyl-3-(7-(pyridin-4-yl)quinolin-4-yl)imidazo[1,2-b]pyridazin-7-yl)phenyl)piperazin-2-one] | 5 to 100 nM |
| Cc1cn2c(-c3ccnc4ccccc34)cnc2cc1-c1cnn(C2CCNCC2)c1 [Example 35, 4-(6-methyl-7-(1-(piperidin-4-yl)-1H-pyrazol-4-yl)imidazo[1,2-a]pyridin-3-yl)quinoline] | 1 to 5 nM |
| NC(=O)c1nn2c(-c3ccnc4ccccc34)cnc2cc1-c1ccc(N2CCNCC2)cc1 [Example 5, 7-(4-(Piperazin-1-yl)phenyl)-3-(quinolin-4-yl)imidazo[1,2-b]pyridazine-6-carboxamide] | 5 to 100 nM |
| Cc1nn2c(-c3ccnc4ccccc34)cnc2cc1-c1ccc(N2CCNCC2)cc1 [Example 1, 4-(6-Methyl-7-(4-(piperazin-1-yl)phenyl)imidazo[1,2-b]pyridazin-3-yl)quinoline] | < 1 nM |
| Cc1nn2c(-c3ccnc4cc(C(=O)N5CCN(C)CC5)ccc34)cnc2cc1-c1ccc(N2CCNCC2)cc1 [Example 17, (4-(6-methyl-7-(4-(piperazin-1-yl)phenyl)imidazo[1,2-b]pyridazin-3-yl)quinolin-7-yl)(4-methylpiperazin-1-yl)methanone] | > 100 nM |
